In ChEMBL document CHEMBL1949549, “Concise synthesis of (+)-conduritol F and inositol analogues from naturally available (+)-proto-quercitol and their glucosidase inhibitory activity” (Bioorg Med Chem Lett, 2012):
pIC50: −log10 of the molar value.

Assays:
[1] = molecular target: Lysosomal alpha-glucosidase (Rattus norvegicus) (UniProt Q6P7A9); test: Inhibition of rat intestinal alpha-glucosidase maltase using maltose as substrate at 10 mg/mL preincubated for 10 mins prior substrate addition measured after 40 mins by spectrophotometry
Lysosomal alpha-glucosidase (Rattus norvegicus), sequence (Q6P7A9 whole entry): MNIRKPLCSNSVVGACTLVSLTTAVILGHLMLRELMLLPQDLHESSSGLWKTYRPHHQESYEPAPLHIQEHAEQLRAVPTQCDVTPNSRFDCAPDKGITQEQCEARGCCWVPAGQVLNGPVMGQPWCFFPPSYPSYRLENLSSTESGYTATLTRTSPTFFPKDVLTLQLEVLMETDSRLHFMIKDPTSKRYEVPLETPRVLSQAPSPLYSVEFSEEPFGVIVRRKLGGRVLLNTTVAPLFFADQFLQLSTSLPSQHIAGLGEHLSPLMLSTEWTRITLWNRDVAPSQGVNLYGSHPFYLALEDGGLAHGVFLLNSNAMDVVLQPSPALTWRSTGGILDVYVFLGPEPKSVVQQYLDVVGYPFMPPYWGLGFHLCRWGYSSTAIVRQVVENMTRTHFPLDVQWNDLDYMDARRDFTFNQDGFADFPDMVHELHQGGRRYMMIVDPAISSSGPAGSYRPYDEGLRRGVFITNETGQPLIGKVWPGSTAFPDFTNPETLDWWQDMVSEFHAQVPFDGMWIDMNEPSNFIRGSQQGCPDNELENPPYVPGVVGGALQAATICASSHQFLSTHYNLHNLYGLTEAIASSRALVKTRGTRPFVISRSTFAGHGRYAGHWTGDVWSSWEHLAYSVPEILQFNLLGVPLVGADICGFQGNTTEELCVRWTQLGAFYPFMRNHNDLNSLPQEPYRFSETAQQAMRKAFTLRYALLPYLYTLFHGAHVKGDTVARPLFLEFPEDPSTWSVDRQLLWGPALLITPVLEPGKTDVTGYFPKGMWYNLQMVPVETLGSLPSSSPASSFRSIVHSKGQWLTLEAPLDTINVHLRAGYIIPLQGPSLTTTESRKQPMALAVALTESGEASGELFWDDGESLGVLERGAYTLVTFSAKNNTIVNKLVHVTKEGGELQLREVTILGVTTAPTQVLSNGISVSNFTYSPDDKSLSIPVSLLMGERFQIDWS

[2] = Inhibition of Baker's yeast Alpha-glucosidase-1 using p-nitrophenyl-alpha-D-glucopyranoside as substrate preincubated for 10 mins prior substrate addition measured after 20 mins by spectrophotometry; parameters: species or system Saccharomyces cerevisiae
[3] = molecular target: Sucrase-isomaltase, intestinal (Rattus norvegicus) (UniProt P23739); test: Inhibition of rat intestinal alpha-glucosidase sucrase using sucrose as substrate at 10 mg/mL preincubated for 10 mins prior substrate addition measured after 40 mins by spectrophotometry
Sucrase-isomaltase, intestinal (Rattus norvegicus), sequence (P23739 1-1013 limits assumed): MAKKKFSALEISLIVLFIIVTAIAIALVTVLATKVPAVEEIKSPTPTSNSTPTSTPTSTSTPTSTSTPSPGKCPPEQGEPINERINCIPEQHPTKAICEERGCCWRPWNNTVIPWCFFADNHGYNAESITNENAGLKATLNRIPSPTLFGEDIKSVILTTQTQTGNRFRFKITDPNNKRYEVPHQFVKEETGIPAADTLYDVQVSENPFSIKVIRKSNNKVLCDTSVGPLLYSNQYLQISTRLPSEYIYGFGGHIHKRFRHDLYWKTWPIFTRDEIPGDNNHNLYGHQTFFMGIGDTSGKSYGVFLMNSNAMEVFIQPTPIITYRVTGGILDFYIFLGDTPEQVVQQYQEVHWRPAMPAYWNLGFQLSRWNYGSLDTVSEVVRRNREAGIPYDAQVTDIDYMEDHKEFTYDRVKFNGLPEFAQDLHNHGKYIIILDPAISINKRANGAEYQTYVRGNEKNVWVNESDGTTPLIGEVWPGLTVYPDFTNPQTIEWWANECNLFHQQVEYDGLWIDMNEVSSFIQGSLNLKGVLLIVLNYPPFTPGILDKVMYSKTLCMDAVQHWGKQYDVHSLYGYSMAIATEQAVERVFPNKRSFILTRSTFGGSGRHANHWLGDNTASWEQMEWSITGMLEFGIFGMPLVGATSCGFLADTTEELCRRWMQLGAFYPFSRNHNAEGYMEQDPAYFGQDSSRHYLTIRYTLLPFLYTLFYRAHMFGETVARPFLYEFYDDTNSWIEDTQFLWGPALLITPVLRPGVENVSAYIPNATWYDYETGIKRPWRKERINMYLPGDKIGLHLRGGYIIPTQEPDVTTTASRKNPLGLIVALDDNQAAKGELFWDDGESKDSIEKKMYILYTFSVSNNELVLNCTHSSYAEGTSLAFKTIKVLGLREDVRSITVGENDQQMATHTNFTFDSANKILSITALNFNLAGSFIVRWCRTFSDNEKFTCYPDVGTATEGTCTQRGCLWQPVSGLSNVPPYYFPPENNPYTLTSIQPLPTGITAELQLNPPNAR
Sucrase-isomaltase, intestinal (Rattus norvegicus), sequence (P23739 1014-1841 limits assumed): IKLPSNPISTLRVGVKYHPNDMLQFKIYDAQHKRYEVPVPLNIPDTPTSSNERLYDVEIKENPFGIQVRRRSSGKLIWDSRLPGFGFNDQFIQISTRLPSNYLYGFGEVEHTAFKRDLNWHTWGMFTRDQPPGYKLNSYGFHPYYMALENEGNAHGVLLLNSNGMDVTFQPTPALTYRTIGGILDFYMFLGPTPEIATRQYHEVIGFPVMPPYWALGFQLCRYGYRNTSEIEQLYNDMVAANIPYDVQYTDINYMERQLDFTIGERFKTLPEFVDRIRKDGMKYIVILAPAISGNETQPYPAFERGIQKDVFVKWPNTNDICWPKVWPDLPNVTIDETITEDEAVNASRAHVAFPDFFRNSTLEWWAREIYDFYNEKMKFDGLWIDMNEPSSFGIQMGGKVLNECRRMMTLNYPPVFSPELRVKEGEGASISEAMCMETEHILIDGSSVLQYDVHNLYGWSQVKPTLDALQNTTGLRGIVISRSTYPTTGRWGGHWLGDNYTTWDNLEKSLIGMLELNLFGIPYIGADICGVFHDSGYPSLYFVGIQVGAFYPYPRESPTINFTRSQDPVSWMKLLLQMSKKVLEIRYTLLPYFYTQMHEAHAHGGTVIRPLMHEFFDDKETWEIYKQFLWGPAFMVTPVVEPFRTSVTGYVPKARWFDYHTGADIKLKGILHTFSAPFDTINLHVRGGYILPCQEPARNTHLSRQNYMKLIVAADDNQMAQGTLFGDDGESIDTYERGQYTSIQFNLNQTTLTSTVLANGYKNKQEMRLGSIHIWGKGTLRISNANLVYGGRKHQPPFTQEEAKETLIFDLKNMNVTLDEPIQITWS

Saccharomyces cerevisiae [4] = test: Ratio of acarbose IC50 to compound IC50 for Baker's yeast Alpha-glucosidase-1
Saccharomyces cerevisiae [5] = test: Inhibition of Baker's yeast Alpha-glucosidase-1 using p-nitrophenyl-alpha-D-glucopyranoside as substrate at 10 mg/mL preincubated for 10 mins prior substrate addition measured after 20 mins by spectrophotometry
Beta-galactosidase = molecular target: T1, Beta-galactosidase (Homo sapiens, UniProt P16278); test: Inhibition of beta-galactosidase
T1 sequence (P16278 whole entry): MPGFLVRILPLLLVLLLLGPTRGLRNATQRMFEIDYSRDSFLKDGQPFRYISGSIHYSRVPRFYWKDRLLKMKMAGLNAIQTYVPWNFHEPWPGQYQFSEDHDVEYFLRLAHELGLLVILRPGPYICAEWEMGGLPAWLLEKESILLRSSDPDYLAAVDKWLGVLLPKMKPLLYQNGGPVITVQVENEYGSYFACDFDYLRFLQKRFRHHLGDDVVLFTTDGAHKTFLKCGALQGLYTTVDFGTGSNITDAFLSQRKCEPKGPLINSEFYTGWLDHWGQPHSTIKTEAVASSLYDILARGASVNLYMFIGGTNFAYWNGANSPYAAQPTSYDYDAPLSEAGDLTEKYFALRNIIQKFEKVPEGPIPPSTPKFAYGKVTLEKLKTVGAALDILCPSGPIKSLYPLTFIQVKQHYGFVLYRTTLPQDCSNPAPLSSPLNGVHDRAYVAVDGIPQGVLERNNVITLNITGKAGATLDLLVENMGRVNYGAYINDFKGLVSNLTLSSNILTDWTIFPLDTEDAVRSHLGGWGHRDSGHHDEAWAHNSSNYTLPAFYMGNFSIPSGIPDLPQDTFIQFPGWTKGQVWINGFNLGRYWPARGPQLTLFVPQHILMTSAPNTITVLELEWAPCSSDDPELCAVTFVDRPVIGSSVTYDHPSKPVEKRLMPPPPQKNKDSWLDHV

Row | Compound | inhibition [1] [%] | pIC50 [2] | inhibition [3] [%] | Ratio IC50 (Saccharomyces cerevisiae [4]) | inhibition (Saccharomyces cerevisiae [5]) [%] | pIC50 (Beta-galactosidase)
1 | O[C@H]1[C@H](O)[C@H](O)[C@@H](O)[C@H](O)[C@H]1O | < 30 | 2.90 | < 30 |  |  | 
2 | O[C@H]1[C@@H](O)[C@@H](O)[C@@H](O)[C@@H](O)[C@@H]1O | < 30 | 3.32 | < 30 |  |  | 
3 | O[C@@H]1[C@@H](O)[C@@H](O)C=C[C@H]1O [listing 1 of 2 here] | < 30 |  | < 30 | 5 |  | 

Second part, the compound after the results:

Row | inhibition [1] [%] | pIC50 [2] | inhibition [3] [%] | Ratio IC50 (Saccharomyces cerevisiae [4]) | inhibition (Saccharomyces cerevisiae [5]) [%] | pIC50 (Beta-galactosidase) | Compound
4 | < 30 |  | < 30 |  | < 30 |  | OC1[C@@H](O)[C@H](O)C[C@@H](O)[C@@H]1O (stereo not given in full)
5 |  | 4.06 |  |  |  |  | O[C@@H]1[C@@H](O)[C@@H](O)C=C[C@H]1O [listing 2 of 2 here]
6 |  |  |  |  |  | 3.22 | O[C@@H]1[C@@H](O)[C@@H](O)C=C[C@H]1O (relative stereo)
7 |  | 3.39 |  |  |  |  | C[C@H]1O[C@H](O[C@H]2[C@H](O)[C@@H](O)[C@@H](O[C@H]3[C@H](O)[C@@H](O)C(O)O[C@@H]3CO)O[C@@H]2CO)[C@H](O)[C@@H](O)[C@@H]1N[C@H]1C=C(CO)[C@@H](O)[C@H](O)[C@H]1O (stereo not given in full) [ACARBOSE]
